Laboratory results from PubChem BioAssay (NCI).
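The compound was tested at five concentrations on cells cultured in 96-well plates, with a 48-hour exposure period. The concentration for 50% growth inhibition is given as GI50. TGI denotes the concentration required for complete inhibition of growth.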

Assays:
Test in all cases: DTP human tumour cell line panel, 48 h
HL-60(TB) leukemia = tested on: HL-60(TB) leukemia
HOP-62 NSCLC = tested on: HOP-62 NSCLC
CAKI-1 renal = tested on: CAKI-1 renal
EKVX NSCLC = tested on: EKVX NSCLC
SW-620 colon = tested on: SW-620 colon
HCT-15 colon = tested on: HCT-15 colon
M14 melanoma = tested on: M14 melanoma
KM12 colon = tested on: KM12 colon
CCRF-CEM leukemia = tested on: CCRF-CEM leukemia
OVCAR-4 ovarian = tested on: OVCAR-4 ovarian

COc1ccc(OC)c2cc(C3(C)SCCCS3)ccc12
TGI (HL-60(TB) leukemia): > 100 µM
TGI (HOP-62 NSCLC): > 100 µM
TGI (CAKI-1 renal): > 100 µM
TGI (EKVX NSCLC): > 100 µM
TGI (SW-620 colon): > 100 µM
TGI (HCT-15 colon): > 100 µM
TGI (M14 melanoma): > 100 µM
TGI (KM12 colon): > 100 µM
TGI (CCRF-CEM leukemia): > 100 µM
TGI (OVCAR-4 ovarian): > 100 µM

CSC(=S)NNC(=O)c1ccncc1
TGI (HL-60(TB) leukemia): 39.9 µM
TGI (HOP-62 NSCLC): 70.2 µM
TGI (CAKI-1 renal): 56.2 µM
TGI (EKVX NSCLC): 57.6 µM
TGI (SW-620 colon): 23.6 µM
TGI (HCT-15 colon): 28.3 µM
TGI (M14 melanoma): 42.3 µM
TGI (KM12 colon): > 100 µM
TGI (CCRF-CEM leukemia): 43.1 µM

O=C(C=Nc1ccccc1C(=O)[O-])c1cccs1.O=C(C=Nc1ccccc1C(=O)[O-])c1cccs1.[Cu+2]
TGI (HL-60(TB) leukemia): > 100 µM
TGI (HOP-62 NSCLC): > 100 µM
TGI (CAKI-1 renal): > 100 µM
TGI (SW-620 colon): > 100 µM
TGI (HCT-15 colon): > 100 µM
TGI (M14 melanoma): > 100 µM
TGI (KM12 colon): > 100 µM
TGI (CCRF-CEM leukemia): > 10 µM

Clc1ccc(CO/N=C(\Cn2ccnc2)c2ccc(Cl)cc2Cl)c(Cl)c1
GI50 (HL-60(TB) leukemia): 2.08 µM
TGI (HL-60(TB) leukemia): 4.62 µM
GI50 (HOP-62 NSCLC): 1.56 µM
TGI (HOP-62 NSCLC): 2.9 µM
GI50 (CAKI-1 renal): 1.38 µM
TGI (CAKI-1 renal): 3.39 µM
GI50 (EKVX NSCLC): 1.43 µM
TGI (EKVX NSCLC): 2.83 µM
GI50 (SW-620 colon): 1.55 µM
TGI (SW-620 colon): 3.2 µM
GI50 (HCT-15 colon): 1.57 µM
TGI (HCT-15 colon): 3.21 µM
GI50 (M14 melanoma): 1.85 µM
TGI (M14 melanoma): 3.71 µM
GI50 (CCRF-CEM leukemia): 1.87 µM
TGI (CCRF-CEM leukemia): 4.62 µM
GI50 (OVCAR-4 ovarian): 1.36 µM
TGI (OVCAR-4 ovarian): 2.67 µM

Cc1ccc2[nH]c(=O)c(C(C#N)c3ccccc3)nc2c1 (centres undefined)
TGI (HOP-62 NSCLC): > 100 µM
TGI (CAKI-1 renal): 76.9 µM
TGI (EKVX NSCLC): 84 µM
TGI (SW-620 colon): > 100 µM
TGI (HCT-15 colon): > 100 µM
TGI (M14 melanoma): > 100 µM
TGI (KM12 colon): > 100 µM
TGI (CCRF-CEM leukemia): > 100 µM
TGI (OVCAR-4 ovarian): > 100 µM

COC(=O)C(=O)C(C(=O)C(=O)Nc1cc([N+](=O)[O-])ccc1[N+](=O)[O-])c1nc2ccc(C(=O)c3ccccc3)cc2[nH]c1=O (centres undefined)
TGI (HOP-62 NSCLC): > 100 µM
TGI (CAKI-1 renal): > 100 µM
TGI (EKVX NSCLC): > 100 µM
TGI (SW-620 colon): > 100 µM
TGI (HCT-15 colon): > 100 µM
TGI (M14 melanoma): 98.8 µM
TGI (KM12 colon): > 100 µM
TGI (CCRF-CEM leukemia): 83.4 µM
TGI (OVCAR-4 ovarian): > 100 µM

COc1ccc(-c2nc(-c3nc4cc(C)c(C)cc4[nH]3)cc3c2[nH]c2ccccc23)cc1
GI50 (HL-60(TB) leukemia): 2.59 µM
TGI (HL-60(TB) leukemia): 5.96 µM
GI50 (HOP-62 NSCLC): 7.63 µM
TGI (HOP-62 NSCLC): > 100 µM
GI50 (CAKI-1 renal): 2.44 µM
TGI (CAKI-1 renal): 44.5 µM
GI50 (SW-620 colon): 7.54 µM
TGI (SW-620 colon): > 100 µM
GI50 (HCT-15 colon): 2.68 µM
TGI (HCT-15 colon): 72.5 µM
GI50 (M14 melanoma): 4.16 µM
TGI (M14 melanoma): 24.8 µM
GI50 (KM12 colon): 3.5 µM
TGI (KM12 colon): 24.9 µM
GI50 (CCRF-CEM leukemia): 2.51 µM
TGI (CCRF-CEM leukemia): 7.56 µM
GI50 (OVCAR-4 ovarian): 6.98 µM
TGI (OVCAR-4 ovarian): > 100 µM

CC1OC(O)CC(OC(=O)c2ccccc2)C1OC(=O)c1ccccc1 (centres undefined)
TGI (HL-60(TB) leukemia): 36 µM
TGI (HOP-62 NSCLC): > 100 µM
TGI (CAKI-1 renal): 63.1 µM
TGI (SW-620 colon): 26.7 µM
TGI (HCT-15 colon): 29.3 µM
TGI (M14 melanoma): 30.3 µM
TGI (KM12 colon): > 100 µM
TGI (CCRF-CEM leukemia): 38.2 µM
TGI (OVCAR-4 ovarian): 28.8 µM

COc1cc2c(cc1OC)[C@@]1(C)C(=O)c3cc4c(cc3[C@H]1N(C)C2=O)OCO4
GI50 (HOP-62 NSCLC): > 100 µM
TGI (HOP-62 NSCLC): > 100 µM
GI50 (CAKI-1 renal): 37.3 µM
TGI (CAKI-1 renal): > 100 µM
GI50 (EKVX NSCLC): 55 µM
TGI (EKVX NSCLC): > 100 µM
GI50 (SW-620 colon): 65.4 µM
TGI (SW-620 colon): > 100 µM
GI50 (HCT-15 colon): > 100 µM
TGI (HCT-15 colon): > 100 µM
GI50 (M14 melanoma): 82.6 µM
TGI (M14 melanoma): > 100 µM
GI50 (KM12 colon): > 100 µM
TGI (KM12 colon): > 100 µM
GI50 (CCRF-CEM leukemia): 38 µM
TGI (CCRF-CEM leukemia): > 100 µM
GI50 (OVCAR-4 ovarian): > 100 µM
TGI (OVCAR-4 ovarian): > 100 µM

CC1(C)C2CCC13C(=O)C1OC3(C2)C2C(=O)c3c(O)ccc(O)c3C(=O)C12 (centres undefined)
GI50 (HL-60(TB) leukemia): 10.6 µM
TGI (HL-60(TB) leukemia): > 50.2 µM
GI50 (HOP-62 NSCLC): 54.5 µM
TGI (HOP-62 NSCLC): > 100 µM
GI50 (CAKI-1 renal): 4.31 µM
TGI (CAKI-1 renal): 18.1 µM
GI50 (EKVX NSCLC): > 100 µM
TGI (EKVX NSCLC): > 100 µM
GI50 (HCT-15 colon): 18.5 µM
TGI (HCT-15 colon): > 54 µM
GI50 (M14 melanoma): 14.1 µM
TGI (M14 melanoma): 29.2 µM
GI50 (KM12 colon): > 50.4 µM
TGI (KM12 colon): > 100 µM
GI50 (CCRF-CEM leukemia): 4.45 µM
TGI (CCRF-CEM leukemia): > 46.9 µM
GI50 (OVCAR-4 ovarian): > 100 µM
TGI (OVCAR-4 ovarian): > 100 µM

CC12CC3CC(C)(C1)CC(N=[N+]=[N-])(C3)C2
TGI (HOP-62 NSCLC): > 100 µM
TGI (CAKI-1 renal): > 100 µM
TGI (EKVX NSCLC): > 100 µM
TGI (SW-620 colon): > 100 µM
TGI (M14 melanoma): > 100 µM
TGI (KM12 colon): > 100 µM
TGI (CCRF-CEM leukemia): > 100 µM
TGI (OVCAR-4 ovarian): > 100 µM

CCOC(=O)C1=C(C)N(NC(=O)c2ccccc2)C2(O)CCCC12C(=O)OCC (centres undefined)
TGI (HL-60(TB) leukemia): > 100 µM
TGI (HOP-62 NSCLC): > 100 µM
TGI (CAKI-1 renal): > 100 µM
TGI (EKVX NSCLC): > 100 µM
TGI (SW-620 colon): > 100 µM
TGI (HCT-15 colon): > 100 µM
TGI (M14 melanoma): > 100 µM
TGI (KM12 colon): > 100 µM
TGI (OVCAR-4 ovarian): > 100 µM

NC(=O)Oc1cc(OC(N)=O)cc(N(CCCl)CCCl)c1
GI50 (HL-60(TB) leukemia): 1.58 µM
TGI (HL-60(TB) leukemia): > 100 µM
GI50 (HOP-62 NSCLC): 20.9 µM
TGI (HOP-62 NSCLC): > 100 µM
GI50 (CAKI-1 renal): 2.97 µM
TGI (CAKI-1 renal): 80.4 µM
GI50 (SW-620 colon): 7.59 µM
TGI (SW-620 colon): > 100 µM
GI50 (HCT-15 colon): 6.31 µM
TGI (HCT-15 colon): > 100 µM
GI50 (M14 melanoma): 5.74 µM
TGI (M14 melanoma): 30.9 µM
GI50 (KM12 colon): 14.1 µM
TGI (KM12 colon): 36.7 µM
GI50 (CCRF-CEM leukemia): 0.902 µM
TGI (CCRF-CEM leukemia): > 100 µM
GI50 (OVCAR-4 ovarian): 14.8 µM
TGI (OVCAR-4 ovarian): 79.3 µM

COc1cc(C(=O)n2nc(N3CCN(C)CC3)c3cc(N)ccc32)cc(OC)c1OC
GI50 (HL-60(TB) leukemia): 2.16 µM
TGI (HL-60(TB) leukemia): 5.14 µM
GI50 (HOP-62 NSCLC): 5.56 µM
TGI (HOP-62 NSCLC): > 100 µM
GI50 (CAKI-1 renal): 4.52 µM
TGI (CAKI-1 renal): > 100 µM
GI50 (SW-620 colon): 5.28 µM
TGI (SW-620 colon): > 100 µM
GI50 (HCT-15 colon): 3.45 µM
TGI (HCT-15 colon): > 100 µM
GI50 (M14 melanoma): 3.74 µM
TGI (M14 melanoma): 16.7 µM
GI50 (KM12 colon): 3.51 µM
TGI (KM12 colon): 27.2 µM
GI50 (CCRF-CEM leukemia): 3.78 µM
TGI (CCRF-CEM leukemia): > 100 µM
GI50 (OVCAR-4 ovarian): 4.17 µM
TGI (OVCAR-4 ovarian): > 100 µM

C/C(=C\c1ccn(-c2ccc(N)cc2)n1)[C@@H]1C[C@@H]2O[C@]2(C)CCC[C@H](C)[C@H](O)[C@@H](C)C(=O)C(C)(C)[C@@H](O)CC(=O)O1
GI50 (HL-60(TB) leukemia): 0.0437 µM
TGI (HL-60(TB) leukemia): > 50 µM
GI50 (HOP-62 NSCLC): 0.0682 µM
TGI (HOP-62 NSCLC): > 50 µM
GI50 (CAKI-1 renal): 0.202 µM
TGI (CAKI-1 renal): > 50 µM
GI50 (EKVX NSCLC): 0.256 µM
TGI (EKVX NSCLC): > 50 µM
GI50 (SW-620 colon): 0.0248 µM
TGI (SW-620 colon): > 50 µM
GI50 (HCT-15 colon): 0.0297 µM
TGI (HCT-15 colon): > 50 µM
GI50 (KM12 colon): 0.0196 µM
TGI (KM12 colon): > 50 µM
GI50 (CCRF-CEM leukemia): 0.0338 µM
TGI (CCRF-CEM leukemia): > 50 µM
GI50 (OVCAR-4 ovarian): 0.401 µM
TGI (OVCAR-4 ovarian): > 50 µM

Cn1c2cccc3nnc4cccc(c4c32)n1C
TGI (HL-60(TB) leukemia): > 100 µM
TGI (CAKI-1 renal): > 100 µM
TGI (EKVX NSCLC): > 100 µM
TGI (SW-620 colon): > 100 µM
TGI (HCT-15 colon): > 100 µM
TGI (M14 melanoma): > 100 µM
TGI (KM12 colon): > 100 µM
TGI (CCRF-CEM leukemia): > 100 µM
TGI (OVCAR-4 ovarian): > 100 µM

COc1ccc(Nc2ccnc(NCCCNc3ccnc4cc(Cl)ccc34)n2)cc1
GI50 (HL-60(TB) leukemia): 1.59 µM
TGI (HL-60(TB) leukemia): 4.1 µM
GI50 (HOP-62 NSCLC): 1.61 µM
TGI (HOP-62 NSCLC): 4.44 µM
GI50 (CAKI-1 renal): 1.15 µM
TGI (CAKI-1 renal): 2.41 µM
GI50 (SW-620 colon): 1.07 µM
TGI (SW-620 colon): 2.56 µM
GI50 (HCT-15 colon): 0.397 µM
TGI (HCT-15 colon): 1.76 µM
GI50 (M14 melanoma): 0.196 µM
TGI (M14 melanoma): 0.461 µM
GI50 (KM12 colon): 1.67 µM
TGI (KM12 colon): 3.73 µM
GI50 (CCRF-CEM leukemia): 0.34 µM
TGI (CCRF-CEM leukemia): 1.8 µM
GI50 (OVCAR-4 ovarian): 1.35 µM
TGI (OVCAR-4 ovarian): 6.22 µM
